{
  "source": "patent US8106055B2",
  "about": "“Substituted amide compounds” (Gruenenthal GmbH, priority 2007, dated 2012)",
  "key": {"[1]": {"target": "T1, human bradykinin 1 receptor (B1R) (Homo sapiens, UniProt P46663)", "T1 construct": "expressed in transfected cells; host or cells: CHO K1 cells", "T1 sequence (P46663 1-353)": "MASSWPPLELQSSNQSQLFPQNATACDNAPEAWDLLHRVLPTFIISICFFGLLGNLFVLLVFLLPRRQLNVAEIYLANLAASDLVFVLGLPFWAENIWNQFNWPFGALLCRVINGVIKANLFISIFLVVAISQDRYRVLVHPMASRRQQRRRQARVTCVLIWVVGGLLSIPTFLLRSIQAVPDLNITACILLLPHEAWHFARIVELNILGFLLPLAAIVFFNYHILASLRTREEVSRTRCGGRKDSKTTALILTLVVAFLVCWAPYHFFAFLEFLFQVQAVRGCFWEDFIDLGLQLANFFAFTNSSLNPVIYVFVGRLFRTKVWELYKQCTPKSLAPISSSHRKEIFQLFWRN", "assay": "Functional investigation on the human bradykinin 1 receptor (B1R), Ca2+ FLIPR assay in CHO K1 hB1R cells", "assay_type": "cell-based", "details": "CHO-K1, B1R antagonism human; test substance 10 μM; Ca2+ FLIPR, CHO K1 hB1R cells; read-out: B1R Ant. h [10 μM] % Inhibition", "summary_of_the_method": "(§1)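 Fluo-4 Ca2+ readout, peak fluorescence. Stable CHO K1 transfectants; compound pre-incubated 10-20 min, then EC80 agonist—Lys-Des-Arg9-BK for hB1R, Des-Arg9-BK for rB1R. % inhibition vs maximal inhibition; IC50 from multiple concentrations, duplicate/triplicate, ≥2 independent runs.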"}, "[2]": {"target": "T2, bradykinin 1 receptor (B1R) of the rat (Rattus norvegicus, UniProt P97583)", "T2 construct": "expressed in transfected cells; host or cells: CHO K1 cells", "T2 sequence (P97583 1-337)": "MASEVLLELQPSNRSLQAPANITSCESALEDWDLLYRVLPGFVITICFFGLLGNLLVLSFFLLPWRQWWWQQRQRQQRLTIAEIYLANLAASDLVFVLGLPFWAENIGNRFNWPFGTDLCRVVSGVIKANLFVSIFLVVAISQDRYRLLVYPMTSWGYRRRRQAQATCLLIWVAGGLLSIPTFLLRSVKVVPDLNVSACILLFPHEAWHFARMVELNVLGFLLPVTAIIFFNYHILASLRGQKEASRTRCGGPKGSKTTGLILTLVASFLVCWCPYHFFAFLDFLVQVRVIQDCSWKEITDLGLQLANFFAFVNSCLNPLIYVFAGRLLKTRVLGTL", "assay": "Functional investigation on the rat bradykinin 1 receptor (B1R), Ca2+ FLIPR assay in CHO K1 rB1R cells", "assay_type": "cell-based", "details": "CHO-K1, B1R antagonism rat; test substance 10 μM; Ca2+ FLIPR, CHO K1 rB1R cells; read-out: B1R Ant. r [10 μM] % Inhibition", "summary_of_the_method": "as §1"}},
  "data": [
    {"molecule": "CN(C)C(c1ccccc1)C1CCC(NC(=O)COCCN(C)S(=O)(=O)c2c(F)c(F)c(F)c(F)c2F)CC1", "note": "(stereo not shown) [Example 136, N-(4-((dimethylamino)(phenyl)methyl)cyclohexyl)-2-(2-(2,3,4,5,6-pentafluoro-N-methylphenylsulfonamido)ethoxy)acetamide]", "values": [
      {"measurement": "inhibition at 10 µM", "setting": "[1]", "value": 87, "unit": "%"},
      {"measurement": "inhibition at 10 µM", "setting": "[2]", "value": -2, "unit": "%"}
    ]},
    {"molecule": "CN(C)C(c1cccc(F)c1)C1CCC(NC(=O)COC2CCN(S(=O)(=O)c3cccc(C(F)(F)F)c3)C2)CC1", "note": "(stereo not shown) [Example 139, N-(4-((dimethylamino)(3-fluorophenyl)methyl)cyclohexyl)-2-(1-(3-(trifluoromethyl)phenylsulfonyl)pyrrolidin-3-yloxy)acetamide]", "values": [
      {"measurement": "inhibition at 10 µM", "setting": "[1]", "value": -5, "unit": "%"},
      {"measurement": "inhibition at 10 µM", "setting": "[2]", "value": 21, "unit": "%"}
    ]},
    {"molecule": "CN(C)C(c1cccs1)C1CCC(NC(=O)COC2CCN(S(=O)(=O)c3ccc(F)cc3)C2)CC1", "note": "(stereo not shown) [Example 28, N-(4-((dimethylamino)(thiophen-2-yl)methyl)cyclohexyl)-2-(1-(4-fluorophenylsulfonyl)pyrrolidin-3-yloxy)acetamide]", "values": [
      {"measurement": "inhibition at 10 µM", "setting": "[1]", "value": -7, "unit": "%"},
      {"measurement": "inhibition at 10 µM", "setting": "[2]", "value": 17, "unit": "%"}
    ]},
    {"molecule": "CN(C)C(c1cccs1)C1CCC(CCNC(=O)COCCN(C)S(=O)(=O)c2cccc(C(F)(F)F)c2)CC1", "note": "(stereo not shown) [Example 32, N-(2-(4-((dimethylamino)(thiophen-2-yl)methyl)cyclohexyl)ethyl)-2-(2-(N-methyl-3-(trifluoromethyl)phenylsulfonamido)ethoxy)acetamide]", "values": [
      {"measurement": "inhibition at 10 µM", "setting": "[1]", "value": 32, "unit": "%"},
      {"measurement": "inhibition at 10 µM", "setting": "[2]", "value": 14, "unit": "%"}
    ]},
    {"molecule": "COc1ccc(S(=O)(=O)N2CCCCC2COCC(=O)NCC2CCC(C(c3cccc(F)c3)N(C)C)CC2)cc1", "note": "(stereo not shown) [Example 179, N-((4-((dimethylamino)(3-fluorophenyl)methyl)cyclohexyl)methyl)-2-((1-(4-methoxyphenylsulfonyl)piperidin-2-yl)methoxy)acetamide]", "values": [
      {"measurement": "inhibition at 10 µM", "setting": "[1]", "value": 65, "unit": "%"},
      {"measurement": "inhibition at 10 µM", "setting": "[2]", "value": 67, "unit": "%"}
    ]},
    {"molecule": "CN(C)C(c1cccc(F)c1)C1CCC(CCNC(=O)COCC2CCCCN2S(=O)(=O)c2ccc(Cl)c(Cl)c2)CC1", "note": "(stereo not shown) [Example 147, 2-((1-(3,4-dichlorophenylsulfonyl)piperidin-2-yl)methoxy)-N-(2-(4-((dimethylamino)(3-fluorophenyl)methyl)cyclohexyl)ethyl)acetamide]", "values": [
      {"measurement": "inhibition at 10 µM", "setting": "[1]", "value": 52, "unit": "%"},
      {"measurement": "inhibition at 10 µM", "setting": "[2]", "value": 27, "unit": "%"}
    ]},
    {"molecule": "CN(C)C(c1cccs1)C1CCC(CCNC(=O)COC2CCN(S(=O)(=O)c3ccc(F)cc3)C2)CC1", "note": "(stereo not shown) [Example 138, N-(2-(4-((dimethylamino)(thiophen-2-yl)methyl)cyclohexyl)ethyl)-2-(1-(4-fluorophenylsulfonyl)pyrrolidin-3-yloxy)acetamide]", "values": [
      {"measurement": "inhibition at 10 µM", "setting": "[1]", "value": 2, "unit": "%"},
      {"measurement": "inhibition at 10 µM", "setting": "[2]", "value": 30, "unit": "%"}
    ]},
    {"molecule": "Cc1cc(C)c(S(=O)(=O)N2CCC(OCC(=O)NCC3CCC(C(c4cccs4)N(C)C)CC3)C2)c(C)c1", "note": "(stereo not shown) [Example 27, N-((4-((dimethylamino)(thiophen-2-yl)methyl)cyclohexyl)methyl)-2-(1-(mesitylsulfonyl)pyrrolidin-3-yloxy)acetamide]", "values": [
      {"measurement": "inhibition at 10 µM", "setting": "[1]", "value": 60, "unit": "%"},
      {"measurement": "inhibition at 10 µM", "setting": "[2]", "value": 60, "unit": "%"}
    ]},
    {"molecule": "COc1ccc(S(=O)(=O)N(C)CCOCC(=O)NCC2CCC(C(c3cccs3)N(C)C)CC2)cc1", "note": "(stereo not shown) [Example 142, N-((4-((dimethylamino)(thiophen-2-yl)methyl)cyclohexyl)methyl)-2-(2-(4-methoxy-N-methylphenylsulfonamido)ethoxy)acetamide]", "values": [
      {"measurement": "inhibition at 10 µM", "setting": "[1]", "value": 50, "unit": "%"},
      {"measurement": "inhibition at 10 µM", "setting": "[2]", "value": 41, "unit": "%"}
    ]},
    {"molecule": "COc1ccc(S(=O)(=O)N2Cc3ccccc3CC2COCC(=O)NCC2CCC(C(c3cccc(F)c3)N(C)C)CC2)cc1", "note": "(stereo not shown) [Example 163, N-((4-((dimethylamino)(3-fluorophenyl)methyl)cyclohexyl)methyl)-2-((2-(4-methoxyphenylsulfonyl)-1,2,3,4-tetrahydroisoquinolin-3-yl)methoxy)acetamide]", "values": [
      {"measurement": "inhibition at 10 µM", "setting": "[1]", "value": 40, "unit": "%"},
      {"measurement": "inhibition at 10 µM", "setting": "[2]", "value": 36, "unit": "%"}
    ]},
    {"molecule": "CN(C)C(c1ccccc1)C1CCC(CNC(=O)COCC2CCCN2S(=O)(=O)c2ccc(Cl)c(Cl)c2)CC1", "note": "(stereo not shown) [Example 18, 2-((1-(3,4-dichlorophenylsulfonyl)pyrrolidin-2-yl)methoxy)-N-((4-((dimethylamino)(phenyl)methyl)cyclohexyl)methyl)acetamide]", "values": [
      {"measurement": "inhibition at 10 µM", "setting": "[1]", "value": 62, "unit": "%"},
      {"measurement": "inhibition at 10 µM", "setting": "[2]", "value": 11, "unit": "%"}
    ]},
    {"molecule": "CN(C)C(c1ccccc1)C1CCC(CNC(=O)COCC2CCCCN2S(=O)(=O)c2ccc(Cl)c(Cl)c2)CC1", "note": "(stereo not shown) [Example 17, 2-((1-(3,4-dichlorophenylsulfonyl)piperidin-2-yl)methoxy)-N-((4-((dimethylamino)(phenyl)methyl)cyclohexyl)methyl)acetamide]", "values": [
      {"measurement": "inhibition at 10 µM", "setting": "[1]", "value": 81, "unit": "%"},
      {"measurement": "inhibition at 10 µM", "setting": "[2]", "value": 22, "unit": "%"}
    ]},
    {"molecule": "Cc1cc(C)c(S(=O)(=O)N2CCC(OCC(=O)NC3CCC(C(c4cccc(F)c4)N(C)C)CC3)C2)c(C)c1", "note": "(stereo not shown) [Example 140, N-(4-((dimethylamino)(3-fluorophenyl)methyl)cyclohexyl)-2-(1-(mesitylsulfonyl)pyrrolidin-3-yloxy)acetamide]", "values": [
      {"measurement": "inhibition at 10 µM", "setting": "[1]", "value": 43, "unit": "%"},
      {"measurement": "inhibition at 10 µM", "setting": "[2]", "value": 30, "unit": "%"}
    ]},
    {"molecule": "COc1cc(C)c(S(=O)(=O)N2CCC(OCC(=O)NCC3CCC(C(c4ccccc4)N(C)C)CC3)C2)c(C)c1", "note": "(stereo not shown) [Example 173, N-((4-((dimethylamino)(phenyl)methyl)cyclohexyl)methyl)-2-(1-(4-methoxy-2,6-dimethylphenylsulfonyl)pyrrolidin-3-yloxy)acetamide]", "values": [
      {"measurement": "inhibition at 10 µM", "setting": "[1]", "value": 94, "unit": "%"},
      {"measurement": "inhibition at 10 µM", "setting": "[2]", "value": 104, "unit": "%"}
    ]},
    {"molecule": "COc1cc(C)c(S(=O)(=O)N2CCC(OCC(=O)NCCC3CCC(C(c4cccs4)N(C)C)CC3)C2)c(C)c1", "note": "(stereo not shown) [Example 199, N-(2-(4-((dimethylamino)(thiophen-2-yl)methyl)cyclohexyl)ethyl)-2-(1-(4-methoxy-2,6-dimethylphenylsulfonyl)pyrrolidin-3-yloxy)acetamide]", "values": [
      {"measurement": "inhibition at 10 µM", "setting": "[1]", "value": 104, "unit": "%"},
      {"measurement": "inhibition at 10 µM", "setting": "[2]", "value": 100, "unit": "%"}
    ]},
    {"molecule": "Cc1ccc(S(=O)(=O)N2CCC(OCC(=O)NCC3CCC(C(c4cccc(F)c4)N(C)C)CC3)C2)cc1", "note": "(stereo not shown) [Example 185, N-((4-((dimethylamino)(3-fluorophenyl)methyl)cyclohexyl)methyl)-2-(1-tosylpyrrolidin-3-yloxy)acetamide]", "values": [
      {"measurement": "inhibition at 10 µM", "setting": "[1]", "value": 9, "unit": "%"},
      {"measurement": "inhibition at 10 µM", "setting": "[2]", "value": 28, "unit": "%"}
    ]},
    {"molecule": "COc1ccc(S(=O)(=O)N2CCCC2COCC(=O)NC2CCC(C(c3cccs3)N(C)C)CC2)cc1", "note": "(stereo not shown) [Example 162, N-(4-((dimethylamino)(thiophen-2-yl)methyl)cyclohexyl)-2-((1-(4-methoxyphenylsulfonyl)pyrrolidin-2-yl)methoxy)acetamide]", "values": [
      {"measurement": "inhibition at 10 µM", "setting": "[1]", "value": -5, "unit": "%"},
      {"measurement": "inhibition at 10 µM", "setting": "[2]", "value": 21, "unit": "%"}
    ]},
    {"molecule": "CCN(CCOCC(=O)NCC1CCC(C(c2cccs2)N(C)C)CC1)S(=O)(=O)c1c(C)cc(OC)c(C)c1C", "note": "(stereo not shown) [Example 16, N-((4-((dimethylamino)(thiophen-2-yl)methyl)cyclohexyl)methyl)-2-(2-(N-ethyl-4-methoxy-2,3,6-trimethylphenylsulfonamido)ethoxy)acetamide]", "values": [
      {"measurement": "inhibition at 10 µM", "setting": "[1]", "value": 86, "unit": "%"},
      {"measurement": "inhibition at 10 µM", "setting": "[2]", "value": 59, "unit": "%"}
    ]},
    {"molecule": "COc1ccc(S(=O)(=O)N2CCC(OCC(=O)NCC3CCC(C(c4ccccc4)N(C)C)CC3)C2)cc1OC", "note": "(stereo not shown) [Example 22, 2-(1-(3,4-dimethoxyphenylsulfonyl)pyrrolidin-3-yloxy)-N-((4-((dimethylamino)(phenyl)methyl)cyclohexyl)methyl)acetamide]", "values": [
      {"measurement": "inhibition at 10 µM", "setting": "[1]", "value": 0, "unit": "%"},
      {"measurement": "inhibition at 10 µM", "setting": "[2]", "value": 26, "unit": "%"}
    ]},
    {"molecule": "CN(C)C(c1cccs1)C1CCC(NC(=O)COCCN(Cc2ccccc2)S(=O)(=O)c2ccccc2)CC1", "note": "(stereo not shown) [Example 161, 2-(2-(N-benzylphenylsulfonamido)ethoxy)-N-(4-((dimethylamino)(thiophen-2-yl)methyl)cyclohexyl)acetamide]", "values": [
      {"measurement": "inhibition at 10 µM", "setting": "[1]", "value": 1, "unit": "%"},
      {"measurement": "inhibition at 10 µM", "setting": "[2]", "value": 3, "unit": "%"}
    ]}
  ]
}
